Assay results reported in the NIST ThermoML archive (doi:10.1021/acs.jced.8b00433).

Test: xn = mol fraction of the nth substance listed
Settings: Gas, Buoyancy - hydrostatic balance with magnetic suspension - one sinker

C [methane] + O=C=O
Settings | mass density [kg/m3]
313.09 K, 17999 kPa, x2 = 0.2017 | 188.702
313.1 K, 4001 kPa, x2 = 0.8988 | 75.134
313.1 K, 4996 kPa, x2 = 0.3997 | 58.587
313.1 K, 5996 kPa, x2 = 0.7985 | 114.567
313.1 K, 7003 kPa, x2 = 0.7985 | 142.512
313.1 K, 7006 kPa, x2 = 0.6015 | 110.298
313.11 K, 7997 kPa, x2 = 0.7985 | 174.464
313.11 K, 10000 kPa, x2 = 0.6015 | 177.419
313.11 K, 12001 kPa, x2 = 0.0998 | 102.596
313.11 K, 14997 kPa, x2 = 0.3997 | 217.543
313.12 K, 7992 kPa, x2 = 0.8988 | 206.745
313.12 K, 14996 kPa, x2 = 0.8988 | 624.636
313.13 K, 4001 kPa, x2 = 0.0998 | 30.822
313.13 K, 4002 kPa, x2 = 0.6015 | 56.419
313.13 K, 5003 kPa, x2 = 0.8988 | 100.174
313.13 K, 6004 kPa, x2 = 0.6015 | 90.955
313.13 K, 9996 kPa, x2 = 0.7985 | 256.481
313.13 K, 10003 kPa, x2 = 0.0998 | 83.788
313.13 K, 11005 kPa, x2 = 0.3997 | 149.559
313.14 K, 3998 kPa, x2 = 0.3997 | 45.694
313.14 K, 7995 kPa, x2 = 0.6015 | 130.852
313.14 K, 11000 kPa, x2 = 0.0998 | 93.126
313.14 K, 11001 kPa, x2 = 0.2017 | 110.189
313.14 K, 11001 kPa, x2 = 0.6015 | 202.91
313.14 K, 15004 kPa, x2 = 0.7985 | 485.573
313.15 K, 4004 kPa, x2 = 0.7985 | 68.752
313.15 K, 5996 kPa, x2 = 0.3997 | 72.099
313.15 K, 11997 kPa, x2 = 0.8988 | 506.067
313.16 K, 5003 kPa, x2 = 0.7985 | 90.396
313.16 K, 6996 kPa, x2 = 0.3997 | 86.285
313.16 K, 18004 kPa, x2 = 0.6015 | 375.856
313.17 K, 3002 kPa, x2 = 0.0998 | 22.748
313.17 K, 5002 kPa, x2 = 0.6015 | 73.052
313.17 K, 5997 kPa, x2 = 0.8988 | 128.664
313.17 K, 8998 kPa, x2 = 0.6015 | 153.28
313.17 K, 15002 kPa, x2 = 0.0998 | 130.663
313.17 K, 18004 kPa, x2 = 0.0998 | 157.443
313.17 K, 18005 kPa, x2 = 0.7985 | 560.943
313.18 K, 8998 kPa, x2 = 0.8988 | 265.242
313.18 K, 9004 kPa, x2 = 0.2017 | 87.631
313.18 K, 11998 kPa, x2 = 0.6015 | 229.134
313.18 K, 14996 kPa, x2 = 0.2017 | 155.927
313.19 K, 5002 kPa, x2 = 0.0998 | 39.114
313.19 K, 6000 kPa, x2 = 0.0998 | 47.652
313.19 K, 8998 kPa, x2 = 0.3997 | 116.64
313.19 K, 9995 kPa, x2 = 0.3997 | 132.712
313.19 K, 10993 kPa, x2 = 0.7985 | 305.994
313.19 K, 11992 kPa, x2 = 0.3997 | 166.169
313.2 K, 3998 kPa, x2 = 0.2017 | 35.711
313.2 K, 9001 kPa, x2 = 0.0998 | 74.487
313.2 K, 9003 kPa, x2 = 0.7985 | 212.239
313.2 K, 10990 kPa, x2 = 0.8988 | 432.06
313.21 K, 5000 kPa, x2 = 0.2017 | 45.475
313.21 K, 6999 kPa, x2 = 0.0998 | 56.348
313.21 K, 8000 kPa, x2 = 0.0998 | 65.323
313.21 K, 9999 kPa, x2 = 0.8988 | 344.181
313.21 K, 14995 kPa, x2 = 0.6015 | 308.146
313.21 K, 17995 kPa, x2 = 0.8988 | 683.03
313.21 K, 17997 kPa, x2 = 0.3997 | 264.841
313.22 K, 5999 kPa, x2 = 0.2017 | 55.518
313.22 K, 6997 kPa, x2 = 0.8988 | 163.201
313.22 K, 8000 kPa, x2 = 0.2017 | 76.608
313.22 K, 11998 kPa, x2 = 0.2017 | 121.576
313.22 K, 12000 kPa, x2 = 0.7985 | 357.778
313.23 K, 7005 kPa, x2 = 0.2017 | 65.96
313.24 K, 10003 kPa, x2 = 0.2017 | 98.786
313.27 K, 8000 kPa, x2 = 0.3997 | 101.088
333.06 K, 10002 kPa, x2 = 0.2017 | 88.824
333.07 K, 4003 kPa, x2 = 0.7985 | 62.105
333.07 K, 11999 kPa, x2 = 0.3997 | 144.496
333.07 K, 17998 kPa, x2 = 0.2017 | 166.841
333.08 K, 4997 kPa, x2 = 0.6015 | 65.944
333.08 K, 5002 kPa, x2 = 0.3997 | 53.475
333.08 K, 8999 kPa, x2 = 0.2017 | 79.049
333.08 K, 9003 kPa, x2 = 0.3997 | 103.555
333.08 K, 15000 kPa, x2 = 0.8988 | 456.324
333.1 K, 5000 kPa, x2 = 0.0998 | 36.091
333.11 K, 6004 kPa, x2 = 0.6015 | 81.338
333.11 K, 11001 kPa, x2 = 0.2017 | 98.605
333.12 K, 4001 kPa, x2 = 0.6015 | 51.39
333.12 K, 4003 kPa, x2 = 0.2017 | 33.068
333.12 K, 6995 kPa, x2 = 0.3997 | 77.606
333.12 K, 9995 kPa, x2 = 0.3997 | 116.802
333.12 K, 14999 kPa, x2 = 0.0998 | 116.773
333.12 K, 18006 kPa, x2 = 0.6015 | 310.346
333.13 K, 5006 kPa, x2 = 0.8988 | 88.521
333.13 K, 5996 kPa, x2 = 0.2017 | 50.919
333.13 K, 7000 kPa, x2 = 0.0998 | 51.598
333.13 K, 10993 kPa, x2 = 0.8988 | 274.201
333.13 K, 12000 kPa, x2 = 0.6015 | 189.959
333.13 K, 14996 kPa, x2 = 0.3997 | 186.621
333.14 K, 4996 kPa, x2 = 0.2017 | 41.851
333.14 K, 7998 kPa, x2 = 0.6015 | 114.282
333.14 K, 10995 kPa, x2 = 0.6015 | 169.869
333.14 K, 11002 kPa, x2 = 0.3997 | 130.586
333.14 K, 11997 kPa, x2 = 0.8988 | 319.541
333.14 K, 14998 kPa, x2 = 0.7985 | 360.976
333.14 K, 18001 kPa, x2 = 0.0998 | 140.51
333.15 K, 6001 kPa, x2 = 0.0998 | 43.781
333.15 K, 8994 kPa, x2 = 0.6015 | 131.934
333.15 K, 11999 kPa, x2 = 0.0998 | 92.187
333.15 K, 14994 kPa, x2 = 0.2017 | 138.03
333.15 K, 14999 kPa, x2 = 0.6015 | 251.317
333.16 K, 7002 kPa, x2 = 0.6015 | 97.409
333.16 K, 11003 kPa, x2 = 0.0998 | 83.984
333.16 K, 12001 kPa, x2 = 0.2017 | 108.442
333.16 K, 18000 kPa, x2 = 0.7985 | 447.149
333.16 K, 18001 kPa, x2 = 0.3997 | 227.522
333.17 K, 4004 kPa, x2 = 0.3997 | 41.983
333.17 K, 4007 kPa, x2 = 0.8988 | 67.864
333.17 K, 5002 kPa, x2 = 0.7985 | 80.565
333.17 K, 7997 kPa, x2 = 0.8988 | 164.576
333.18 K, 9007 kPa, x2 = 0.7985 | 170.905
333.18 K, 9999 kPa, x2 = 0.0998 | 75.751
333.18 K, 12003 kPa, x2 = 0.7985 | 260.729
333.19 K, 7001 kPa, x2 = 0.8988 | 136.146
333.19 K, 8000 kPa, x2 = 0.0998 | 59.549
333.19 K, 8996 kPa, x2 = 0.8988 | 196.344
333.19 K, 8999 kPa, x2 = 0.0998 | 67.601
333.19 K, 9999 kPa, x2 = 0.7985 | 198.595
333.19 K, 10001 kPa, x2 = 0.6015 | 150.602
333.19 K, 11002 kPa, x2 = 0.7985 | 228.687
333.2 K, 5991 kPa, x2 = 0.7985 | 100.196
333.2 K, 6008 kPa, x2 = 0.3997 | 65.434
333.2 K, 7994 kPa, x2 = 0.7985 | 145.123
333.2 K, 8002 kPa, x2 = 0.2017 | 69.464
333.21 K, 9996 kPa, x2 = 0.8988 | 232.812
333.21 K, 18000 kPa, x2 = 0.8988 | 552.634
333.22 K, 6999 kPa, x2 = 0.2017 | 60.167
333.22 K, 7005 kPa, x2 = 0.7985 | 121.973
333.22 K, 7995 kPa, x2 = 0.3997 | 90.268
333.24 K, 6001 kPa, x2 = 0.8988 | 110.997
353.02 K, 2999 kPa, x2 = 0.0998 | 19.722
353.03 K, 10001 kPa, x2 = 0.6015 | 135.164
353.05 K, 9004 kPa, x2 = 0.6015 | 119.448
353.08 K, 12003 kPa, x2 = 0.8988 | 250.219
353.08 K, 14998 kPa, x2 = 0.2017 | 125.022
353.09 K, 11999 kPa, x2 = 0.6015 | 167.978
353.09 K, 17992 kPa, x2 = 0.6015 | 269.799
353.1 K, 8995 kPa, x2 = 0.8988 | 165.756
353.1 K, 17997 kPa, x2 = 0.8988 | 437.7
353.11 K, 12000 kPa, x2 = 0.3997 | 129.551
353.11 K, 18006 kPa, x2 = 0.7985 | 362.285
353.12 K, 5997 kPa, x2 = 0.8988 | 99.468
353.12 K, 6004 kPa, x2 = 0.6015 | 74.991
353.12 K, 18000 kPa, x2 = 0.3997 | 201.731
353.13 K, 4000 kPa, x2 = 0.8988 | 61.9
353.13 K, 6004 kPa, x2 = 0.3997 | 60.111
353.13 K, 14997 kPa, x2 = 0.3997 | 165.894
353.14 K, 9003 kPa, x2 = 0.0998 | 62.172
353.14 K, 14999 kPa, x2 = 0.6015 | 219.076
353.15 K, 6003 kPa, x2 = 0.7985 | 90.263
353.15 K, 14995 kPa, x2 = 0.0998 | 106.161
353.15 K, 14999 kPa, x2 = 0.8988 | 346.055
353.16 K, 3001 kPa, x2 = 0.6015 | 35.135
353.16 K, 15004 kPa, x2 = 0.7985 | 288.885
353.17 K, 9004 kPa, x2 = 0.3997 | 93.855
353.18 K, 3996 kPa, x2 = 0.7985 | 56.892
353.18 K, 4002 kPa, x2 = 0.2017 | 30.584
353.18 K, 4004 kPa, x2 = 0.3997 | 38.873
353.18 K, 11994 kPa, x2 = 0.7985 | 214.517
353.22 K, 8998 kPa, x2 = 0.7985 | 147.521
353.22 K, 17999 kPa, x2 = 0.0998 | 127.527
353.23 K, 6000 kPa, x2 = 0.0998 | 40.53
353.24 K, 11994 kPa, x2 = 0.0998 | 84.225
353.26 K, 6007 kPa, x2 = 0.2017 | 46.942
353.27 K, 9000 kPa, x2 = 0.2017 | 72.326
353.28 K, 12001 kPa, x2 = 0.2017 | 98.585
353.37 K, 17994 kPa, x2 = 0.2017 | 150.552
